Measurements from US7816386B2, “Cinnamic, phenylpropiolic and phenylpropanoic acid derivatives useful as anti-tumor agents” (Sigma-Tau Industrie Farmaceutiche Riunite S.p.A., priority 2005, dated 2010).
Structures can show the parent of a compound that is named as a salt. Where two headings read alike, the source gives them in different places.

Key:
[1] = test system: HCT-116 human colon carcinoma cells; assay: Cytotoxicity on HCT-116 tumour cells (sulphorodamine B); assay type: cell-based; conditions: read-out: IC50 ± SD, HCT-116 (concentration which inhibits the 50% of cell survival), 24 h treatment, then other 48 h in drug-free medium
Method: (§1) To test the effects of the compounds on cell growth, NB4 human promyelocytic leukaemia, NCI-H460 non-small cell carcinoma cells and HCT-116 human colon carcinoma cells were used. NB4 and NCI-H460 tumour cells were grown RPMI 1640 containing 10% fetal bovine serum (GIBCO), whereas HCT-116 tumour cells were grown in McCoy's 5A containing 10% fetal bovine serum (GIBCO).
(§2) Tumour cells were seeded in 96-well tissue culture plates (Corning) at approximately 10% confluence and were allowed to attach and recover for at least 24 h. […] The plates were incubated for 24 h at 37° C. At the end of the treatment, for NB4 tumour cells in suspension, the procedure was performed as follows: medium culture was removed by centrifugation of the plates at 1600×g for 10 min and the surnatant was removed. 250 μl PBS were added, then the plates were centrifuged at 1600×g for 10 min, the surnatant was removed. 200 μl/well of medium culture RPMI 1640 containing 10% FCS were added and the plates were incubated at 37° C. for other 48 h. The plates were centrifuged again at 1600×g for 10 min, the medium culture was removed and 200 μl PBS and 50 μl of cold 80% TCA were added. The plates were incubated on ice for at least 1 h. TCA was removed, the plates were washed 3 times for immersion in distilled-water and dried on paper and at 40° C. for 5 min. Then 200 μl of 0.4% sulphorodamine B in 1% acetic acid were added. The plates were incubated at room temperature for other 30 min. Sulphorodamine B was removed, the plates were washed for immersion in 1% acetic acid for 3 times, then they were dried on paper and at 40° C. for 5 min. Then 200 μl Tris 10 mM were added, the plates were kept under stirring for 20 min. The survival cell was determined as optical density by a Multiskan spectrofluorimeter at 540 nm. For the tumour cells in adhesion (NCI-H460 and HCT-116), the procedure was as above mentioned, except that at the end of the treatment, the plates were washed by remotion of the surnatant and addition of PBS 3 times without centrifugation. Also the last day of the assay, the surnatant was removed without centrifugation.
(§3) The amount of cells killed was calculated as the percentage decrease in sulphorodamine B binding compared with control cultures.

[2] = test system: NB4 human promyelocytic leukaemia; assay: Cytotoxicity on NB4 tumour cells (sulphorodamine B); assay type: cell-based
Method: as §1, §2, §3

[3] = test system: NCI-H460 non-small cell carcinoma cells; assay: Cytotoxicity on NCI-H460 tumour cells (sulphorodamine B); assay type: cell-based, human; conditions: for IC50: 24 h treatment, then other 48 h in drug-free medium, sulphorodamine B; for cytotoxic effect on survival of NCI-H460 tumour cells (in words): comparison among the compounds
Method: as §1, §2, §3

[4] = Homo sapiens, read-out: IC50 ± SD, NB4 (concentration which inhibits the 50% of cell survival), NB4 tumour cells, 24 h treatment, then other 48 h in drug-free medium
[5] = Homo sapiens, NCI-H460, read-out: IC50 ± SD, NCI-H460 (concentration which inhibits the 50% of cell survival), NCI-H460 tumour cells
[6] = read-out: IC50 ± SD, NB4 (concentration which inhibits the 50% of cell survival), NB4 tumour cells, 24 h treatment, then other 48 h in drug-free medium

For `Cl.O=C(/C=C/c1cccc(C=NOCCN2CCOCC2)c1)NO` [ST3576, (2E)-N-hydroxy-3-{3-[(2-morpholin-4-ylethoxyimino)methyl]-phenyl}-acryl-amide hydrochloride], the IC50 ([1]; Homo sapiens) was 4000 ± 500 nM, the IC50 [2, 4] was 1400 to 2900 nM and the IC50 ([2]; read-out: IC50 ± SD, NB4 (concentration which inhibits the 50% of cell survival), NB4 tumour cells, 24 h treatment, then other 48 h in drug-free medium, hydrochloride) was 1890 ± 80 nM. The IC50 [3, 5] was 6600 ± 800 nM and the “cytotoxic effect on survival of NCI-H460 tumour cells (in words)” value (“cytotoxic effect on survival” below) ([3]; NCI-H460 tumour cells) was “minor cytotoxic effect”.
`O=C(/C=C/c1ccc(C=NOCc2c(F)c(F)c(F)c(F)c2F)cc1)NO` [ST2986, (2E)-N-hydroxy-3-[4-({[(pentafluorobenzyl)oxy]imino}-methyl)phenyl]-acryl-amide] showed an IC50 [1] of 2400 ± 100 nM, an IC50 [2, 6] of 700 ± 70 nM and an IC50 ([3]; read-out: IC50 ± SD, NCI-H460 (concentration which inhibits the 50% of cell survival), NCI-H460 tumour cells) of 1600 ± 70 nM.
In the case of `O=C(/C=C/c1ccc(C=NO)cc1)NO` [ST2983, (2E)-N-hydroxy-3-{4-[(hydroxyimino)methyl]phenyl}acrylamide], the IC50 ([1]; Homo sapiens) is reported as 3500 ± 300 nM, the IC50 [3, 5] is reported as 6300 ± 400 nM and the “cytotoxic effect on survival” value ([3]; NCI-H460 tumour cells) is reported as “minor cytotoxic effect”.
With `O=C(/C=C/c1ccc(C=NOCc2ccc([N+](=O)[O-])cc2)cc1)NO` [ST2987, (2E)-N-hydroxy-3-[4-({[(4-nitrobenzyl)oxy]imino}-methyl)phenyl]acrylamide] the IC50 ([1]; Homo sapiens) was 1200 ± 200 nM, the IC50 [2, 4] was 600 to 800 nM and the IC50 [2, 6] was 800 ± 10 nM. For the same compound, the IC50 [3, 5] was 2600 ± 100 nM.
With `COC(=O)c1ccc(CON=Cc2ccc(/C=C/C(=O)NO)cc2)cc1` [ST3049, (2E)-N-hydroxy-3-[4-({[(4-methoxycarbonylbenzyl)oxy]imino}-methyl)phenyl]-acrylamide] the IC50 ([1]; Homo sapiens) was 1700 ± 100 nM, the IC50 [2, 4] was 600 to 800 nM and the IC50 [2, 6] was 800 ± 90 nM. It also gave an IC50 [3, 5] of 1700 ± 100 nM.
In the case of `O=C(/C=C/c1ccc(C=NOCCN2CCOCC2)cc1)NO` [ST3050, (2E)-N-hydroxy-3-{4-[(2-morpholin-4-ylethoxyimino)methyl]-phenyl}-acryl-amide], the IC50 ([1]; Homo sapiens) is reported as 1800 ± 100 nM, the IC50 [2, 4] is reported as 1400 to 2900 nM and the IC50 [2, 6] is reported as 1700 ± 200 nM. It also gave an IC50 [3, 5] of 2900 ± 400 nM.
For `O=C(/C=C/c1ccc2[nH]ccc2c1)NO` [ST2880, (2E)-N-hydroxy-3-(1H-indol-5-yl)acrylamide], the IC50 ([1]; Homo sapiens) was 2700 ± 300 nM, the IC50 [2, 4] was 1400 to 2900 nM and the IC50 [2, 6] was 1800 ± 20 nM. The IC50 [3, 5] was 5900 ± 500 nM and the “cytotoxic effect on survival” value ([3]; NCI-H460 tumour cells) was “minor cytotoxic effect”.
In the case of `Nc1ccccc1NC(=O)/C=C/c1ccc(C=NOCCN2CCOCC2)cc1` [ST3573, (2E)-N-(2-Amino-phenyl)-3-{4-[(2-morpholin-4-yl-ethoxyimino)methyl]-phenyl}-acrylamide hydrochloride], the IC50 ([1]; Homo sapiens) is reported as > 20000 nM, the IC50 [2, 4] is reported as 8870 ± 600 nM and the IC50 [3, 5] is reported as > 20000 nM.
With `Nc1ccccc1NC(=O)/C=C/c1ccc(C=NOCc2ccc([N+](=O)[O-])cc2)cc1` [ST3070, (2E)-N-(2-aminophenyl)-3-[4-({[(4-nitrobenzyl)oxy]imino}-methyl)phenyl]-acrylamide] the IC50 ([1]; Homo sapiens) was 33400 ± 3900 nM, the IC50 [2, 4] was > 20000 nM and the IC50 [3, 5] was 200000 nM.
With `C=CCON=Cc1ccc(/C=C/C(=O)NO)cc1` [ST2984, (2E)-N-hydroxy-3-(4-{[(allyloxy)imino]methyl}phenyl)acrylamide] the IC50 ([1]; Homo sapiens) was 3500 ± 70 nM, the IC50 [2, 4] was 1400 to 2900 nM and the IC50 [2, 6] was 1400 ± 70 nM. It also gave an IC50 [3, 5] of 3200 ± 90 nM.
`O=C(/C=C/c1ccc(C=NNC(=O)c2ccc(Cl)cc2)cc1)NO` [ST2888, (2E)-N-hydroxy-3-(4-{[(4-chlorobenzoyl)hydrazono]-methyl}phenyl)acrylamide] gave an IC50 ([1]; Homo sapiens) of 1800 ± 100 nM, an IC50 [2, 4] of 600 to 800 nM and an IC50 [2, 6] of 800 ± 20 nM. The IC50 [3, 5] was 3400 ± 300 nM.
With `O=C(O)/C=C/c1ccc(C=NOCc2ccc([N+](=O)[O-])cc2)cc1` [ST3075, (2E)-3-[4-({[(4-nitrobenzyl)oxy]imino}-methyl)phenyl]acrylic acid] the IC50 ([1]; Homo sapiens) was > 20000 nM, the IC50 [2, 4] was > 20000 nM and the IC50 [3, 5] was 21300 ± 3000 nM.
`O=C(/C=C/c1ccc(C=NOc2ccccc2)cc1)NO` [ST2985, (2E)-N-hydroxy-3-{4-[(phenoxyimino)methyl]phenyl}acrylamide] was tested, and the IC50 ([1]; Homo sapiens) was 3700 ± 400 nM, the IC50 [2, 4] was 1400 to 2900 nM and the IC50 [2, 6] was 2700 ± 90 nM. The IC50 [3, 5] was 5100 ± 300 nM and the “cytotoxic effect on survival” value ([3]; NCI-H460 tumour cells) was “minor cytotoxic effect”.
`O=C(CCc1ccc(C=NOCc2ccc([N+](=O)[O-])cc2)cc1)NO` [ST3330, N-hydroxy-3-[4-({[(4-nitrobenzyl)oxy]imino}methyl)phenyl]propanamide] was tested, and the IC50 ([1]; Homo sapiens) was 3100 ± 100 nM, the IC50 [2, 4] was 950 ± 60 nM and the IC50 [3, 5] was 7700 ± 1000 nM. For the same compound, the “cytotoxic effect on survival” value ([3]; NCI-H460 tumour cells) was “minor cytotoxic effect”.
`O=C(O)/C=C/c1ccc(C=NOCc2ccccc2)cc1` [ST3076, (2E)-3-(4-{[(benzyloxy)imino]methyl}phenyl)acrylic acid] was tested, and the IC50 ([1]; Homo sapiens) was > 20000 nM and the IC50 [2, 4] was > 20000 nM.
For `O=C(/C=C/c1ccc(C=NOCc2ccccc2)cc1)NO` [ST2840, (2E)-3-(4-{[(benzyloxy)imino]methyl}phenyl)-N-hydroxyacrylamide], the IC50 ([1]; Homo sapiens) was 2800 ± 200 nM, the IC50 [2, 4] was 600 to 800 nM and the IC50 [2, 6] was 600 ± 6 nM. The IC50 [3, 5] was 1600 ± 100 nM.
